# Experimental data taken from patent US20170226518A1, “COMPOSITIONS AND METHODS FOR TREATING CANCER” (Autotelic LLC, priority 2016, published 2017).
# In the oligonucleotide strings, read from the 5' end, every base follows the letter of its sugar. An asterisk marks phosphorothioate; unmarked linkages are phosphodiester. Other units and linkages are bracketed, terminal groups are in braces. A string of capitals states the bases alone. d = 2'-deoxy (DNA)
# Legend:
# [1] = test system: WiDr colon cancer cells; experiment: Cellular proliferation of WiDr colon cancer cells in vitro; format: cell-based; conditions: 10 μM AP12009
# Text: The aim of the study was to determine the effect of AP12009 (trabedersen) treatment in combination with 5-Fluorouracil (5-FU) on TGFβ2 secretion and on cellular proliferation of HUP-T3 pancreatic cancer cells and WiDr colon cancer cells in vitro.
# [2] = test system: pancreatic cancer; experiment: Phase I/II study P-001: PFS and OS in pancreatic cancer patients; format: in vivo, human; conditions: for OS: pancreatic cancer; for OS (overall survival) / PFS (progression free survival): second line pancreatic cancer patients, 4 days on and 10 days off
# Method: (§1) At screening, up to 10 “measurable lesions” (i.e. lesions that could be accurately measured in at least 1 dimension with a longest diameter of 2 cm) representative of all involved organs were identified as “target lesions” for tumor response assessment and were measured and documented. All other lesions were defined and recorded as “non-target lesions”. Tumor response was determined by the local investigator every 8 weeks after start of the first trabedersen cycle during follow-up visits, irrespective of whether the patient was still on treatment or off treatment. The tumor assessment was based on Response Evaluation Criteria in Solid Tumors (RECIST 1.0) criteria. The categories of overall tumor response are as follows: (1) Complete response (CR): disappearance of all target and non-target lesions and normalization of tumor marker level; (2) Partial response (PR): at least 30% decrease in the sum of the longest diameter (LD) of target lesions (baseline sum LD as reference) and/or persistence of one or more non-target lesions and/or maintenance of tumor marker level above normal limits; (3) Stable disease (SD): less than 30% decrease or less than 20% increase in sum LD target lesions (smallest sum LD since treatment start as reference) and/or persistence of one or more non-target lesions and/or maintenance of tumor marker level above normal limits; (4) Progressive disease (PD) At least 20% increase in sum LD target lesions (smallest sum LD since treatment start as reference) and/or unequivocal progression of existing nontarget lesions and/or appearance of one or more new lesions; and (5) Unknown.
# (§2) Progression-free survival (PFS) was defined as the time from Day 1 until tumor progression or death from any cause. The date of progression was either the date of the image showing progression or the date of treatment termination in case one of the reasons for treatment termination was tumor progression (referring to clinical progression as assessed by the Investigator), whichever occurred first.
# Overall survival (OS) was defined as the time from Day 1 until death from any cause. All patients were followed for survival during the follow-up assessments every 8 weeks. The survival status was documented at the Final Visit (Day 29) and during the 8-weekly post-treatment follow-up assessments, and was continued to be collected after study closure until database lock or until the patient was lost to follow-up.
# There were […] line patients and 11 third line and beyond on the 4 days on and 10 days off regimen. The PFS/OS (progression free survival/overall survival ratio) of these second line patients in months were: 1.87/5.60 (N=6), 1.87/9.93 (N=11) and 2.72/11.80 (N=5) at increasing mean dose of 140 mg/m^2/day, 167 mg/m^2/day, and 196 mg/m^2/day, respectively. The OS of 9.93 and 11.80 are higher than the highest reported in the 65 trials reported in the literature during 1997-2015 (range=2.50-9.20/median=5.50). The corresponding PFS values were in line with reported literature (range=0.00-7.65/median=2.43). […] Trabedersen itself was not having an impact on the tumor (FIG. 1).
# [3] = test system: melanoma; experiment: Phase I/II study P-001: PFS and OS in melanoma patients; format: in vivo, human
# Method: as §1, §2
# Overall survival (OS) was defined as the time from Day 1 until death from any cause. All patients were followed for survival during the follow-up assessments every 8 weeks. […]
# The primary objective was to determine the maximum tolerated dose (MTD) and the dose-limiting toxicity (DLTs) of two cycles of trabedersen administered intravenously (i.v.) for 7 days (7 days on and 7 days off) or for 4 days every other week (4 days on and 10 days off). The secondary objectives included assessment of the potential antitumor activity of trabedersen administered i.v. at weekly intervals and for four days every other week, as assessed by survival. […]
# [4] = mean dose 167 mg/m^2/day (N=11)
substance,measurement,setting,value
trabedersen: TGFβ2 specific phosphorothioate antisense oligodeoxynucleotide with the sequence 5′-CGGCATGTCTATTTTGTA-3′ (SEQ ID No: 1) (antisense dC*dG*dG*dC*dA*dT*dG*dT*dC*dT*dA*dT*dT*dT*dT*dG*dT*dA),cell proliferation (% of untreated control),[1],76%
same,overall survival (OS) rate versus dose,"[2]; pancreatic cancer patients, trabedersen as second line treatment (FIG. 1)",dose dependent increase
same,OS,[2]; 4/10 cohort treated with subsequent chemotherapies,14.7 mos
same,OS,[2]; 4/10 cohort without subsequent chemotherapies,2.93 mos
same,OS,[2]; chemotherapy on 2nd line followed with trabedersen 4/10 regimen as third line (N=9),2.80 mos
same,OS,[2]; trabedersen first on 2nd line followed with subsequent therapies (N=11),9.93 mos
same,OS (overall survival),[2]; mean dose 140 mg/m^2/day (N=6),5.60 months
same,PFS (progression free survival),[2]; mean dose 140 mg/m^2/day (N=6),1.87 months
same,OS (overall survival),[2]; [4],9.93 months
same,PFS (progression free survival),[2]; [4],1.87 months
same,OS (overall survival),[2]; mean dose 196 mg/m^2/day (N=5),11.80 months
same,PFS (progression free survival),[2]; mean dose 196 mg/m^2/day (N=5),2.72 months
same,Median progression free survival (PFS),[3]; 15 patients,1.77 mos
same,median OS,"[3]; all doses, 19 patients",11.4 mos
same,OS,[3]; trabedersen followed by subsequent chemotherapy (N=9),13.70 mos
same,OS,[3]; without subsequent chemotherapy (N=7),5.5 mos
